Assay [1] concerns the target T1, recombinant METTL3/METTL14 complex (Homo sapiens, UniProt Q86U44).
T1 construct: purchased Active Motif 311970; host or cells: Sf9 cells
The experiment in a line: METTL3/14 Scintillation Proximity Assay (SPA), RNA methyltransferase activity. Format: biochemical. To be noted: 5.31 nM METTL3/14 complex, 250 nM RNA substrate, 1 μM 3H-SAM, 90 min; for compounds marked * best of the two separated forms.

For the next assay, the system named is Kasumi-1 cells. The experiment in a line: Kasumi-1 cellular viability assay (ATP-Lite, 72 h). Format: cell-based. To be noted: Homo sapiens, ATP-Lite luminescence, % viability relative to DMSO. In short, it runs like this:
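Kasumi-1 AML cells, 15000/well in RPMI-1640 with 10% FBS, were exposed to compound titrations (0.1% final DMSO) for 72 h at 37 °C, 5% CO2. ATP-Lite One Step luminescence gave % viability versus DMSO control, and IC50 came from the concentration-response.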

A further assay has as its system Caov-3 cells. Put plainly: Caov-3 cellular viability assay (ATP-Lite, 72 h). Format: cell-based. To be noted: Homo sapiens, ATP-Lite luminescence, % viability relative to DMSO. In a few lines:
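10000 cells/well treated 72 h at 37 °C, 5% CO2, in RPMI-1640 with 10% FBS and 0.1% DMSO final. Viability by ATP-Lite One Step luminescence. Expressed as % of DMSO control, with IC50 from each compound's concentration-response curve.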

SMILES strings stand for the structures.

T1 sequence (Q86U44 whole entry): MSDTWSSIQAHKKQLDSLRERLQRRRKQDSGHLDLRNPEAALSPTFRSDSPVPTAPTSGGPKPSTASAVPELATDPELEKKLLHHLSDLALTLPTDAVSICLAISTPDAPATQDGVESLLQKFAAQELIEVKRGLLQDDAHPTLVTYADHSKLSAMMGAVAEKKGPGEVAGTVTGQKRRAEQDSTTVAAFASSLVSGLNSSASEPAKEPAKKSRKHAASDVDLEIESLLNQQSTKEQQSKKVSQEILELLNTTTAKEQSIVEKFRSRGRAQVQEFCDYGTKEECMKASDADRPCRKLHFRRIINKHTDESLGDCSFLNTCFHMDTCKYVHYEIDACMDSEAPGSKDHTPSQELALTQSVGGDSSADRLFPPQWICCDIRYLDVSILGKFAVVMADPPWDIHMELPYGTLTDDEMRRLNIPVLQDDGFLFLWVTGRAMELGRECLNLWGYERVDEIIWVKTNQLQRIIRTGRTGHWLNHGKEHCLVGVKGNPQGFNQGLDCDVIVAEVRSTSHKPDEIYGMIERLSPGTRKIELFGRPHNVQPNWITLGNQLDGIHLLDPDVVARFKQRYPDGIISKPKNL
T1 sequence (Q9HCE5 whole entry partner): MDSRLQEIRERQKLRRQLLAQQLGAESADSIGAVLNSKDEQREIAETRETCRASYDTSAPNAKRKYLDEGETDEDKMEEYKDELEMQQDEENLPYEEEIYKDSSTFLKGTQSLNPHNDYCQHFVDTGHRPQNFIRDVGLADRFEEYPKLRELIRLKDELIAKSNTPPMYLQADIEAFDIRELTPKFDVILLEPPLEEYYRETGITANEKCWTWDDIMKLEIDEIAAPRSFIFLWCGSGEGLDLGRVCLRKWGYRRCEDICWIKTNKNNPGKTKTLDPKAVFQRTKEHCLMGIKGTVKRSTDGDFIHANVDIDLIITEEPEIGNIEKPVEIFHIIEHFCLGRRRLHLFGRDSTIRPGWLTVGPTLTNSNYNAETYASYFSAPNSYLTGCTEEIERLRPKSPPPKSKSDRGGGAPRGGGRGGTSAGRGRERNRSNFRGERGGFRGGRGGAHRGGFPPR

Regarding `COc1cc(-c2cn(Cc3ccc(N4CCC[C@@H](NCC5CCC5)C4)cn3)nn2)c2cn[nH]c2c1` [Compound 042, (R)-N-(cyclobutylmethyl)-1-(6-((4-(6-methoxy-1H-indazol-4-yl)-1H-1,2,3-triazol-1-yl)methyl)pyridin-3-yl)piperidin-3-amine], the IC50 in assay [1] was at most 50 nM; in the assay with Kasumi-1 cells it was at most 500 nM; with Caov-3 cells, at most 500 nM.

For `COc1cncc(-c2cn(Cc3ccc(N4CCC[C@@H](NCC5CCC5)C4)cn3)nn2)c1` [Compound 087, (R)-N-(cyclobutylmethyl)-1-(6-((4-(5-methoxypyridin-3-yl)-1H-1,2,3-triazol-1-yl)methyl)pyridin-3-yl)piperidin-3-amine], the IC50 is at most 50 nM in assay [1], 500 to 5000 nM in the assay with Kasumi-1 cells and 500 to 5000 nM in the assay on Caov-3 cells.

`CC(c1cnn(-c2cncc(N(C)C)n2)c1)n1ccc(N2CCC[C@@H](NCC3CC3)C2)cc1=O` (single isomer, unassigned) [Compound 225]: the IC50 is at most 50 nM in assay [1], at most 500 nM in the assay with Kasumi-1 cells and at most 500 nM with Caov-3 cells.

For `COc1cncc(-c2ncn(C(C)n3ccc(N4CCC[C@@H](NCC5CCC5)C4)cc3=O)n2)c1` (single isomer, unassigned) [Compound 135], the IC50 was at most 50 nM in assay [1], 500 to 5000 nM in the assay on Kasumi-1 cells and 500 to 5000 nM with Caov-3 cells.

Take `c1nnc(-c2cn(C3(c4ccc(N5CCC[C@@H](NCC6CC6)C5)cn4)COC3)nn2)cc1N1CCCC1` [Compound 202, (R)-N-(cyclopropylmethyl)-1-(6-(3-(4-(5-(pyrrolidin-1-yl)pyridazin-3-yl)-1H-1,2,3-triazol-1-yl)oxetan-3-yl)pyridin-3-yl)piperidin-3-amine]: the IC50 is at most 50 nM in assay [1], at most 500 nM in the assay with Kasumi-1 cells and at most 500 nM with Caov-3 cells.

For `COc1cncc(-c2cn(Cc3ccc(N4CCC[C@@H](NCC5CCC5)C4)nc3)nn2)c1` [Compound 086, (R)-N-(cyclobutylmethyl)-1-(5-((4-(5-methoxypyridin-3-yl)-1H-1,2,3-triazol-1-yl)methyl)pyridin-2-yl)piperidin-3-amine], the IC50 in assay [1] is at most 50 nM; with Kasumi-1 cells, 500 to 5000 nM; with Caov-3 cells, 500 to 5000 nM.

Consider `O=C(Nc1cc(=O)n2ccccc2n1)C1(c2ccc(N3CCC[C@@H](NCC4CCC4)C3)nc2)COC1` [Compound 322, (R)-3-(6-(3-((cyclobutylmethyl)amino)piperidin-1-yl)pyridin-3-yl)-N-(4-oxo-4H-pyrido[1,2-a]pyrimidin-2-yl)oxetane-3-carboxamide], for which the IC50 was at most 50 nM in assay [1], 500 to 5000 nM with Kasumi-1 cells and 500 to 5000 nM with Caov-3 cells.

On to `FC(F)(F)C1(CN[C@@H]2CCCN(c3ccc(C4(n5cc(-c6cncc(C7CC7)c6)nn5)COC4)nc3)C2)CCC1` [Compound 339, (R)-1-(6-(3-(4-(5-cyclopropylpyridin-3-yl)-1H-1,2,3-triazol-1-yl)oxetan-3-yl)pyridin-3-yl)-N-((1-(trifluoromethyl)cyclobutyl)methyl)piperidin-3-amine], for which the IC50 in assay [1] is at most 50 nM; in the assay with Kasumi-1 cells, 500 to 5000 nM; in the assay with Caov-3 cells it was at most 500 nM.

As for `CN(C)c1cncc(-c2cn(Cc3ccc(N4CCC[C@@H](NCC5CC5)C4)nn3)nn2)c1` [Compound 183, (R)-5-(1-((6-(3-((cyclopropylmethyl)amino)piperidin-1-yl)pyridazin-3-yl)methyl)-1H-1,2,3-triazol-4-yl)-N,N-dimethylpyridin-3-amine], the 50% inhibitory concentration (IC50) is at most 50 nM in assay [1], 500 to 5000 nM in the assay on Kasumi-1 cells and at most 500 nM with Caov-3 cells.

As to `CC(NC(=O)c1cc(=O)n2ccccc2n1)c1ccc(N2CCC[C@@H](NCC3CCC3)C2)cn1` (single isomer, unassigned) [Compound 058], the IC50 in assay [1] was at most 50 nM; with Kasumi-1 cells, 500 to 5000 nM; with Caov-3 cells it was 500 to 5000 nM.

As for `Clc1cc(-c2cn(Cc3ccc(N4CCC[C@@H](NCC5CCC5)C4)nn3)nn2)c2cn[nH]c2c1` [Compound 057, (R)-1-(6-((4-(6-chloro-1H-indazol-4-yl)-1H-1,2,3-triazol-1-yl)methyl)pyridazin-3-yl)-N-(cyclobutylmethyl)piperidin-3-amine], the values for the IC50 (in assay [1]; with Kasumi-1 cells; with Caov-3 cells) were at most 50 nM, 500 to 5000 nM and 500 to 5000 nM, respectively.

`COc1cncc(-c2cn(C(C)n3ccc(N4CCC[C@@H](NCC5CCC5)C4)c(F)c3=O)nn2)c1` (stereo partly drawn) [Compound 126, 4-((R)-3-((cyclobutylmethyl)amino)piperidin-1-yl)-3-fluoro-1-(1-(4-(5-methoxypyridin-3-yl)-1H-1,2,3-triazol-1-yl)ethyl)pyridin-2(1H)-one]: the IC50 in assay [1] was at most 50 nM; in the assay on Kasumi-1 cells it was above 5000 nM; with Caov-3 cells it was 500 to 5000 nM.

For `CC(n1cc(-c2cncc(N3CC4(CC4)C3)n2)nn1)n1ccc(N2CCC[C@@H](NCC3CC3)C2)cc1=O` (single isomer, unassigned) [Compound 247], the figures for the IC50 (in assay [1]; in the assay with Kasumi-1 cells; in the assay with Caov-3 cells) were at most 50 nM, at most 500 nM and at most 500 nM, respectively.

With `c1cc(-c2cn(Cc3ccc(N4CCC[C@@H](NCC5CCC5)C4)nn3)nn2)c2cncn2c1` [Compound 003, (R)-N-(cyclobutylmethyl)-1-(6-((4-(imidazo[1,5-a]pyridin-8-yl)-1H-1,2,3-triazol-1-yl)methyl)pyridazin-3-yl)piperidin-3-amine], the IC50 was at most 50 nM in assay [1], 500 to 5000 nM in the assay on Kasumi-1 cells and above 5000 nM in the assay on Caov-3 cells.

Regarding `CC(n1cc(-c2cncc(OCC(F)(F)F)c2)nn1)n1ccc(N2CCC[C@@H](NCC3CCC3)C2)cc1=O` (single isomer, unassigned) [Compound 200], the figures for the IC50 (in assay [1]; in the assay on Kasumi-1 cells; with Caov-3 cells) were at most 50 nM, 500 to 5000 nM and 500 to 5000 nM, respectively.

For the compound `O=C(NC(c1ccc(N2CCC[C@@H](NCC3CCC3)C2)nn1)C(F)(F)F)c1cc(=O)n2ccccc2n1` (single isomer, unassigned) [Compound 065], the IC50 in assay [1] is at most 50 nM; in the assay with Kasumi-1 cells it was above 5000 nM; in the assay with Caov-3 cells it was 500 to 5000 nM.

As to `CC(n1cnc(-c2cncc(N3CCCC3)n2)c1)n1ccc(N2CCC[C@@H](NCC3CC3)C2)cc1=O` (single isomer, unassigned) [Compound 226], the IC50 was at most 50 nM in assay [1], at most 500 nM in the assay with Kasumi-1 cells and at most 500 nM with Caov-3 cells.

As to `O=C(Nc1cc(=O)n2ccccc2n1)C1(c2ccc(N3CCC[C@@H](NCC4(F)CC4)C3)cn2)COC1` [Compound 330, (R)-3-(5-(3-(((1-fluorocyclopropyl)methyl)amino)piperidin-1-yl)pyridin-2-yl)-N-(4-oxo-4H-pyrido[1,2-a]pyrimidin-2-yl)oxetane-3-carboxamide], the IC50 was at most 50 nM in assay [1], 500 to 5000 nM in the assay with Kasumi-1 cells and 500 to 5000 nM in the assay on Caov-3 cells.

`CN(CC1CCC1)[C@@H]1CCCN(c2ccc(C3(C(=O)Nc4cc(=O)n5ccccc5n4)COC3)nc2)C1` [Compound 272, (R)-3-(5-(3-((cyclobutylmethyl)(methyl)amino)piperidin-1-yl)pyridin-2-yl)-N-(4-oxo-4H-pyrido[1,2-a]pyrimidin-2-yl)oxetane-3-carboxamide]: the IC50 in assay [1] is at most 50 nM; in the assay with Kasumi-1 cells, 500 to 5000 nM; with Caov-3 cells it was 500 to 5000 nM.

The values above are taken from patent publication US20250002475A1 (EPICS THERAPEUTICS, priority 2023, published 2025).
